# Marks after values point to notes of the source that are not given here.
# How the values were obtained:
# [1] = target: T1, human M1 muscarinic receptors (Homo sapiens, UniProt P11229); assay: [3H]-arachidonic acid release in CHO cells expressing M1 receptors, with and without ACh (single modulator concentration, four-parameter curves); format: cell-based; parameters: expressed in transfected cells; host or cells: CHO cells stably transfected with hM1, obtained from Mark Brann's laboratory (NIH); details: for 0.1 µM ACh: response with modulator present divided by response to ACh alone / 100 µM ACh: response with modulator present divided by response to ACh alone / No ACh: agonist effect of the allosteric ligand by itself, fraction of the maximal response that could be elicited by ACh: modulator 10 µM, CHO-hM1, mean ± s.e.m.; for No ACh: agonist effect of the allosteric ligand by itself, fraction of the maximal response that could be elicited by ACh: at least 4 determinations; for Effect on M1 receptor activity and ACh response, in words: modulators at 10 µM (amiodarone 30 µM)
# T1 sequence (P11229 1-460): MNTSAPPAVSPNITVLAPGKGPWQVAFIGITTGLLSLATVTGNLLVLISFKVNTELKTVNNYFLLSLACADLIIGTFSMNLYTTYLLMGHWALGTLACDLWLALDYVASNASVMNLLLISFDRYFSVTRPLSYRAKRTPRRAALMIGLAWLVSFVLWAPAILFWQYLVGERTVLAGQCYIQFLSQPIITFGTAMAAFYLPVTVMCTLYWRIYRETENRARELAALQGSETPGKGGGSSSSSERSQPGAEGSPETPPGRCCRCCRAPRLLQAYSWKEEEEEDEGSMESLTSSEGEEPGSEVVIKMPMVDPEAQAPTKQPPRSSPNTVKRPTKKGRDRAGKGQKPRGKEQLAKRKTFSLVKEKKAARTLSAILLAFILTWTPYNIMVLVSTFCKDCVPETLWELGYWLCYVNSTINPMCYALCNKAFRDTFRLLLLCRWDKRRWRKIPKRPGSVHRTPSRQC
# Description: CHO cells expressing human M1 muscarinic receptors were cultured at 37 °C in a 5% CO2 atmosphere in F12 medium supplemented with 5% fetal bovine serum, 100 units/ml penicillin, and 100 µg/ml streptomycin. These cells were obtained from Mark Brann’s laboratory when they were at NIH and have been in use by us and others for many years.
# Measurement of [^3H]AA release was performed as described in Stahl and Ellis[24]. Stably transfected CHO-hM1 cells were seeded on 24-well plates (Greiner Bio-One GmbH, Frickenhausen, Germany) at a density of 5.0 × 10^4 cells/well in 0.5 ml of F-12 medium. Cells were incubated until they attached (approximately 3 h), followed by the addition of [^3H]AA to a final concentration of 0.05 μCi of [^3H]AA per well. The cells were then grown for 16 to 20 h before the assay was performed. [^3H]AA release was measured in Eagle’s basal medium with 20 mM HEPES and 2 mg/ml fatty acid-free bovine serum albumin (EM-BSA). Cells were rinsed twice with EM-BSA, followed by the addition of EM-BSA media containing experimental agents and incubated for 1 h at 37 °C. The assay was terminated by aspiration of the media, and the amount of [^3H]AA released was determined by liquid scintillation counting (Beckman-Coulter LS6500).
# Where indicated (Fig. 2), cells were pretreated with POB to reduce the number of available receptors per cell. Stock POB was made up at 10 mM in ethanol and stored at −20C. Each well was pretreated with 0.5 ml of the appropriate concentration in PBS with 1 mM CaCl2 and 1 mM MgCl2 (PBS+ +) for 30 min at 37 °C, followed by 5 washes with PBS+ + . After pretreatment, the normal protocol follows as above.
# Tabulated [^3H]AA release data are represented as a fraction of maximal release elicited by ACh or as the fraction of release elicited by the relevant concentration of ACh alone, as indicated. Dose-response curves were normalized to the maximal response of ACh without allosteric ligand. Where indicated, response curves were analyzed using the empirical four-parameter equation: Y=Top+Bottom-Top/1+X/C50^n where X is the concentration of the ligand used, Y is the amount of response, C50 is the concentration of the ligand that produces 50% of the maximal effect, Top and Bottom are the top and bottom plateaus of the curve, and n is related to the Hill slope for the curve. Where indicated, families of response curves were analyzed according to an allosteric operational model[50],[51]: Y=EM[τAA(KB+αβB)+τBBKA]/[τAA(KB+αβB)+τBBKA+AKB+KAKB+KAB+αAB] where EM is the maximal response; A is the concentration of ACh; B is the concentration of the allosteric ligand; τA and τB represent the operational efficacies of A and B, respectively; KA and KB are the equilibrium dissociation constants of A and B; and α and β represent the cooperativities between A and B in terms of binding and activation, respectively. Curve-fitting was carried out with GraphPad Prism, version 5.0 or 6.0 (San Diego CA).
# [2] = tested on: wild-type (AB) zebrafish (Danio rerio); assay: Maximum tolerated concentration (MTC) determination in larval zebrafish; format: in vivo; details: after 24 h exposure; 5 dpf larvae
# Description: (§1) Larval zebrafish were produced in the University of Toledo zebrafish core facility and housed in an incubator maintained at 28 °C on a 14:10 h cycle. Fish were acclimated to the testing room conditions the evening prior to testing. All testing took place during the 14 h light cycle after the lights had been on for at least 2 h.
# Determination of maximum tolerated concentration (adapted from Berghmans)[52] was completed by placing 5 days post fertilization (dpf) wild-type zebrafish larvae in a 24 well plate at 6 fish per well, and one compound concentration per well. […] Death was determined by the absence of heartbeat. Additional endpoints were used to assess toxicity at non-lethal concentrations such as startle capacity (poke stimulus), abnormalities in swimming behavior (loss of dorsoventral balance), and gross morphological deformities (bent body). […] The MTC determination was used to select three doses of each compound (low, medium, high dose) to be used in behavioral assays.
# [3] = tested on: wild-type (AB) zebrafish (Danio rerio); assay: animal or person; format: in vivo; details: for Distance moved / Variance turn angle: compound at 10 µM relative to controls, mean ± s.e.m., N = 12; for MEC: locomotor behaviors
# Description: as §1
# The movement of larval zebrafish was monitored with the Noldus behavior recording system (Noldus Information Technology, Leesburg VA) and quantified using EthoVision® XT 15 software (Noldus Information Technology, Leesburg VA). Five-dpf zebrafish larvae were exposed to a range of nonlethal concentrations of compounds in a 24-well plate with appropriate controls. The plate was immediately placed in the incubator for a 30-min exposure period. After 30 min, the plate was transferred to the Noldus system and swimming behavior was recorded in 100% light for 30 min to measure spontaneous swimming behavior. The light was switched off for 10 min (dark period) and then switched on for 10 min (light period), which was then repeated for two additional cycles. In total, the larvae were exposed to three cycles of alternating 10 min dark and light periods (100% darkness-to-100% light). Each drug challenge was conducted on three separate plates with n = 6 larvae/dose/plate.
# Absolute turn angle (TA) and angular velocity provided measures of the extent of turning behavior, while the intra-individual variance of turn angle quantified how consistently (low variance) or inconsistently (high variance) fish turned. A lowered intra-individual variance of turning reflected repeatedly performing the same turning behavior, a stereotypy.
# All data for exposure and the behavioral end points were analyzed by one-way ANOVA (factor: drug concentration) followed by a Dunnett’s multiple comparisons test for post hoc significance between drug concentration and control group. Statistically significant differences are noted as follows; *p < 0.05; **p < 0.01; ***p < 0.001.
# [4] = tested on: wild-type (AB) zebrafish (Danio rerio); format: in vivo; details: compound at 10 µM relative to controls; mean ± s.e.m., N = 12
SMILES,0.1 µM ACh: response with modulator present divided by response to ACh alone [1],100 µM ACh: response with modulator present divided by response to ACh alone [1],"No ACh: agonist effect of the allosteric ligand by itself, fraction of the maximal response that could be elicited by ACh [1]","Effect on M1 receptor activity and ACh response, in words [1]",MTC (maximum tolerated concentration) [2] [µM],Distance moved [3],Variance turn angle [3],MEC [3] [µM],Angular velocity [4] [%],Therap. index [3]
"CCCCc1oc2ccccc2c1C(=O)c1ccc(OC)cc1 [Compound 6a, (2-butylbenzofuran-3-yl)(4-methoxyphenyl)methanone]",1.37 ± 0.07,1.06 ± 0.04,0.05 ± 0.01,inactive,3,115.4 ± 11.7%,115.8 ± 13.0%,> 3,95.9 ± 13.3,–
"CCCCc1oc2ccccc2c1C(=O)c1cc(I)c(OC)c(I)c1 [Compound 6b, (2-butylbenzofuran-3-yl)(3,5-diiodo-4-methoxyphenyl)methanone]",1.78 ± 0.12,1.36 ± 0.07,0.08 ± 0.02,increased ACh activity,30,75.3 ± 8.5* %,133.7 ± 14.0* %,> 30,132.3 ± 16.9,–
"CCCCc1oc2ccccc2c1C(=O)c1ccc(OCCN(CC)CC)cc1 [Compound 6c, (2-butylbenzofuran-3-yl)(4-(2-(diethylamino)ethoxy)phenyl)methanone]",0.40 ± 0.11,1.04 ± 0.05,0.04 ± 0.01,decreased ACh activity,3,59.8 ± 8.8%,136.4 ± 11.8%,0.1,129.9 ± 20.1,30
"COc1ccc(CN2C(=O)C(=O)c3ccccc32)cc1I [Compound 8b, 1-(3-iodo-4-methoxybenzyl)indoline-2,3-dione]",2.13 ± 0.08,1.24 ± 0.01,0.08 ± 0.01,–,10,52.7 ± 6.6*** %,143.0 ± 13.5** %,1,175.3 ± 19.0,10
"COc1ccc(CN2C(=O)C(=O)c3ccccc32)cc1Br [Compound 8d, 1-(3-bromo-4-methoxybenzyl)indoline-2,3-dione]",1.57 ± 0.06,0.90 ± 0.03,0.04 ± 0.01,–,100,38.4 ± 4.5*** %,170.2 ± 15.1*** %,1,201.4 ± 27.5,100
"COc1c(Cl)cc(CN2C(=O)C(=O)c3ccccc32)cc1Cl [Compound 8e, 1-(3,5-dichloro-4-methoxybenzyl)indoline-2,3-dione]",2.29 ± 0.14,1.21 ± 0.07,0.13 ± 0.04,–,100,29.1 ± 5.3*** %,158.8 ± 14.3*** %,1,222.1 ± 25.0,100
"COc1ccc(CN2C(=O)C(=O)c3ccccc32)cc1Cl [Compound 8f, 1-(3-chloro-4-methoxybenzyl)indoline-2,3-dione]",1.67 ± 0.12,1.08 ± 0.06,0.09 ± 0.04,–,10,37.4 ± 6.4*** %,127.9 ± 16.2%,3,157.1 ± 24.5,3.3
"COc1c(F)cc(CN2C(=O)C(=O)c3ccccc32)cc1F [Compound 8g, 1-(3,5-difluoro-4-methoxybenzyl)indoline-2,3-dione]",1.41 ± 0.13,0.95 ± 0.05,0.03 ± 0.01,–,30,65.7 ± 11.7*** %,126.5 ± 10.4* %,1,144.5 ± 18.6,30
